Source: patent US20250281457A1, “TREATMENT OR PREVENTION OF DENGUE VIRAL INFECTION” (Janssen Pharmaceuticals, Inc., priority 2022, published 2025)
Where two headings read alike, the source gives them in different places.

Assay: Plasma pharmacokinetics with loading dose and weekly or twice weekly maintenance dosing, fed (Example 5)
Format: in vivo, human
Details: for AUC: read-out: Mean AUCτ (SD); for Tmax: read-out: Median tmax (min-max); for Cmax: read-out: Mean Cmax (SD)
Method: A pharmaceutical formulation comprising Compound (a) as described in Example 2 (SF2a/b) was administered as an oral dosage form, to healthy adult participants, in a fed state. Four dose regimens were applied: • Panel I (weekly dosing): 450 mg of Compound (a) twice a day (BID) for two days: on day 1 (D1) and on day 2 (D2) (loading dose); and then 900 mg once a week (Q7D), on day 3 (D3), day 10 (D10), day 17 (D17), and on day 24 (D24) (maintenance dose). • Panel II (biweekly dosing): 450 mg of Compound (a) twice a day (BID) for two days: on day 1 (D1) and on day 2 (D2); (loading dose) and then 450 mg once every 3 (Q3D) or 4 days (Q4D): on day 3 (D3), on day 6 (D6), on day 10 (D10), on day 13 (D13), on day 17 (D17), on day 20 (D20), on day 24 (D24), and on day 27 (D27), for a total of 900 mg each week administered through two doses of 450 mg each (maintenance dose). • Panel III (weekly dosing): 150 mg of Compound (a) twice a day (BID) for two days: on day 1 (D1) and on day 2 (D2) (loading dose); and then 300 mg once a week (Q7D): on day 3 (D3), day 10 (D10), day 17 (D17), and on day 24 (D24) (maintenance dose). • Panel IV (biweekly dosing): 150 mg of Compound (a) twice a day (BID) for two days: on day 1 (D1) and on day 2 (D2) (loading dose); and then 150 mg Q3D or Q4D: on day 3 (D3), on day 6 (D6), on day 10 (D10), on day 13 (D13), on day 17 (D17), on day 20 (D20), on day 24 (D24), and on day 27 (D27), for a total of 300 mg each week administered through two doses of 150 mg each (maintenance dose).
Oral dosage forms were administered together with approximately 240 mL of non-carbonated water under fed conditions, and were taken within 10 minutes after completion of normal standardized normal fat breakfast in the morning or after completion of normal standardized normal fat dinner in case of evening dosing. Intake of Compound (a) took place at around the same time each day. Intake of Compound (a) marked time 0 hours.
A standardized normal fat meal was served approximately 30 minutes before study drug intake. The standardized normal fat meal contained approximately 21 g of fat, 67 g of carbohydrates, 19 g of proteins resulting in around 533 kcal (an example meal is 4 slices of bread, 2 slices of ham or cheese, butter, jelly, and 1 or 2 cups (up to 355 mL) of decaffeinated coffee or tea with milk and/or sugar). The standardized normal fat meal was ingested entirely within 30 minutes or less. Within 10 minutes after completing the meal, but no more than 30 minutes after the start of the meal, study drug was administered. In case of Compound (a) intake in the evening, timing of standardized dinner was aligned to time of drug intake. […]
For Study Panel 1 only, additional whole blood samples were be collected on Days 1, 24, 25, 26, 38, 45, 51, and 59 using venipuncture. The whole blood samples were be used for the determination of Compound (a) whole blood concentrations and for determination of Compound (a) plasma concentrations. To determine Compound (a) venous whole blood concentrations, an aliquot of the whole blood sample was be pipetted onto the TASSO M-20 for better comparison with capillary whole blood samples collected by TASSO M-20. […]
Separation between metabolites and interfering endogenous compounds was achieved by injecting 2 μL sample extract onto an Acquity UPLC BEH C18 column (50×2.1 mm, 1.7 μm, Waters) at 50° C. and using 10 mM ammonium bicarbonate solution as mobile phase A, and methanol: acetonitrile (50:50, v/v) as mobile phase B. A gradient elution at a flow rate of 0.600 mL/min was applied using the following program: 35% B was increased to 90% B in 3 min, was further increased to 98% B at 3.01 min and held constant up to 4.00 min.
A Triple Quad 6500+ mass spectrometer (Sciex) equipped with a turbo ion spray source was used for analyte detection in positive ion mode using electrospray ionization. […]

[1] = Panel I (450 mg BID Days 1-2, then 900 mg Q7D; SF2a/b, fed), Day 2
[2] = Panel II (450 mg BID Days 1-2, then 450 mg Q3D/Q4D; SF2a/b, fed), Day 2
[3] = Panel III (150 mg BID Days 1-2, then 300 mg Q7D; SF2a/b, fed), Day 2
[4] = Panel IV (150 mg BID Days 1-2, then 150 mg Q3D/Q4D; SF2a/b, fed), Day 2
[5] = human, plasma, oral, 150 mg, Panel III (150 mg BID Days 1-2, then 300 mg Q7D; SF2a/b, fed), Day 1
[6] = human, plasma, oral, 150 mg, Panel III (150 mg BID Days 1-2, then 300 mg Q7D; SF2a/b, fed), Day 2
[7] = human, plasma, oral, 150 mg, Panel IV (150 mg BID Days 1-2, then 150 mg Q3D/Q4D; SF2a/b, fed), Day 3
[8] = human, plasma, oral, 150 mg, Panel IV (150 mg BID Days 1-2, then 150 mg Q3D/Q4D; SF2a/b, fed), Day 27

Mean Cmin (SD) (Panel I (450 mg BID Days 1-2, then 900 mg Q7D; SF2a/b, fed), Day 1): 0.000 (0.000) ng/mL
Mean Cmin (SD) [1]: 2750 (1089) ng/mL
Mean Ctrough (SD) [1]: 2780 (1047) ng/mL
Mean Ctrough (SD) (Panel I (450 mg BID Days 1-2, then 900 mg Q7D; SF2a/b, fed), Day 3): 4370 (976) ng/mL
Mean Ctrough (SD) (Panel I (450 mg BID Days 1-2, then 900 mg Q7D; SF2a/b, fed), Day 10): 1965 (35.4) ng/mL
Mean Ctrough (SD) (Panel I (450 mg BID Days 1-2, then 900 mg Q7D; SF2a/b, fed), Day 17): 1500 (113) ng/mL
Mean Cmin (SD) (Panel II (450 mg BID Days 1-2, then 450 mg Q3D/Q4D; SF2a/b, fed), Day 1): 0.000 (0.000) ng/mL
Mean Cmin (SD) [2]: 2492 (307) ng/mL
Mean Ctrough (SD) [2]: 2503 (293) ng/mL
Mean Ctrough (SD) (Panel II (450 mg BID Days 1-2, then 450 mg Q3D/Q4D; SF2a/b, fed), Day 3): 4132 (401) ng/mL
Mean Ctrough (SD) (Panel II (450 mg BID Days 1-2, then 450 mg Q3D/Q4D; SF2a/b, fed), Day 6): 2708 (429) ng/mL
Mean Ctrough (SD) (Panel II (450 mg BID Days 1-2, then 450 mg Q3D/Q4D; SF2a/b, fed), Day 10): 2340 (577) ng/mL
Mean Ctrough (SD) (Panel II (450 mg BID Days 1-2, then 450 mg Q3D/Q4D; SF2a/b, fed), Day 13): 2343 (639) ng/mL
Mean Ctrough (SD) (Panel II (450 mg BID Days 1-2, then 450 mg Q3D/Q4D; SF2a/b, fed), Day 17): 2088 (693) ng/mL
Mean Ctrough (Panel II (450 mg BID Days 1-2, then 450 mg Q3D/Q4D; SF2a/b, fed), Day 20): 2270 (652) ng/mL
Mean Ctrough (SD) (Panel II (450 mg BID Days 1-2, then 450 mg Q3D/Q4D; SF2a/b, fed), Day 24): 2016 (847) ng/mL
Mean Ctrough (SD) (Panel II (450 mg BID Days 1-2, then 450 mg Q3D/Q4D; SF2a/b, fed), Day 27): 1928 (605) ng/mL
Mean Cmin (SD) (Panel III (150 mg BID Days 1-2, then 300 mg Q7D; SF2a/b, fed), Day 1): 0.000 (0.000) ng/mL
Mean Cmin (SD) [3]: 899 (151) ng/mL
Mean Ctrough (SD) [3]: 899 (151) ng/mL
Mean Ctrough (SD) (Panel III (150 mg BID Days 1-2, then 300 mg Q7D; SF2a/b, fed), Day 3): 1582 (298) ng/mL
Mean Ctrough (SD) (Panel III (150 mg BID Days 1-2, then 300 mg Q7D; SF2a/b, fed), Day 10): 775 (99.3) ng/mL
Mean Ctrough (SD) (Panel III (150 mg BID Days 1-2, then 300 mg Q7D; SF2a/b, fed), Day 17): 700 (98.1) ng/mL
Mean Cmin (SD) (Panel IV (150 mg BID Days 1-2, then 150 mg Q3D/Q4D; SF2a/b, fed), Day 1): 0.000 (0.000) ng/mL
Mean Cmin (SD) [4]: 892 (257) ng/mL
Mean Ctrough (SD) [4]: 892 (257) ng/mL
Mean Ctrough (SD) (Panel IV (150 mg BID Days 1-2, then 150 mg Q3D/Q4D; SF2a/b, fed), Day 3): 1472 (385) ng/mL
Mean Ctrough (SD) (Panel IV (150 mg BID Days 1-2, then 150 mg Q3D/Q4D; SF2a/b, fed), Day 6): 865 (236) ng/mL
Mean Ctrough (SD) (Panel IV (150 mg BID Days 1-2, then 150 mg Q3D/Q4D; SF2a/b, fed), Day 10): 681 (234) ng/mL
Mean Ctrough (SD) (Panel IV (150 mg BID Days 1-2, then 150 mg Q3D/Q4D; SF2a/b, fed), Day 13): 689 (238) ng/mL
Mean Ctrough (SD) (Panel IV (150 mg BID Days 1-2, then 150 mg Q3D/Q4D; SF2a/b, fed), Day 17): 570 (269) ng/mL
Mean Ctrough (Panel IV (150 mg BID Days 1-2, then 150 mg Q3D/Q4D; SF2a/b, fed), Day 20): 710 (236) ng/mL
Mean Ctrough (SD) (Panel IV (150 mg BID Days 1-2, then 150 mg Q3D/Q4D; SF2a/b, fed), Day 24): 612 (239) ng/mL
Mean Ctrough (SD) (Panel IV (150 mg BID Days 1-2, then 150 mg Q3D/Q4D; SF2a/b, fed), Day 27): 623 (237) ng/mL
AUC [5]: 5680 ng·h/mL
Tmax [5]: 5 h
AUC [6]: 16800 ng·h/mL
Cmax [6]: 1810 ng/mL
Tmax [6]: 5 h
Cmax (human, plasma, oral, 150 mg, Panel IV (150 mg BID Days 1-2, then 150 mg Q3D/Q4D; SF2a/b, fed), Day 1): 753 ng/mL
AUC(0-t) (human, plasma, oral, 150 mg, Panel IV (150 mg BID Days 1-2, then 150 mg Q3D/Q4D; SF2a/b, fed), Day 3, read-out: Mean AUC24 h (SD)): 38600 ng·h/mL
AUC(0-t) (human, plasma, oral, 150 mg, Panel IV (150 mg BID Days 1-2, then 150 mg Q3D/Q4D; SF2a/b, fed), Day 3, read-out: Mean AUC72 h (SD)): 89200 ng·h/mL
Cmax [7]: 2120 ng/mL
Tmax [7]: 5 h
Cmax (human, plasma, oral, 150 mg, Panel IV (150 mg BID Days 1-2, then 150 mg Q3D/Q4D; SF2a/b, fed), Day 6): 1460 ng/mL
Cmax (human, plasma, oral, 150 mg, Panel IV (150 mg BID Days 1-2, then 150 mg Q3D/Q4D; SF2a/b, fed), Day 10): 1230 ng/mL
Cmax (human, plasma, oral, 150 mg, Panel IV (150 mg BID Days 1-2, then 150 mg Q3D/Q4D; SF2a/b, fed), Day 13): 1180 ng/mL
Cmax (human, plasma, oral, 150 mg, Panel IV (150 mg BID Days 1-2, then 150 mg Q3D/Q4D; SF2a/b, fed), Day 17, n = 3): 1210 ng/mL
Cmax (human, plasma, oral, 150 mg, Panel IV (150 mg BID Days 1-2, then 150 mg Q3D/Q4D; SF2a/b, fed), Day 20): 1200 ng/mL
Cmax (human, plasma, oral, 150 mg, Panel IV (150 mg BID Days 1-2, then 150 mg Q3D/Q4D; SF2a/b, fed), Day 24): 1260 ng/mL
AUC(0-t) (human, plasma, oral, 150 mg, Panel IV (150 mg BID Days 1-2, then 150 mg Q3D/Q4D; SF2a/b, fed), Day 27, read-out: Mean AUC24 h (SD)): 26000 ng·h/mL
AUC(0-t) (human, plasma, oral, 150 mg, Panel IV (150 mg BID Days 1-2, then 150 mg Q3D/Q4D; SF2a/b, fed), Day 27, read-out: Mean AUC72 h (SD)): 65800 ng·h/mL
AUC(0-t) (human, plasma, oral, 150 mg, Panel IV (150 mg BID Days 1-2, then 150 mg Q3D/Q4D; SF2a/b, fed), Day 27, read-out: Mean AUClast (SD)): 258000 ng·h/mL
AUC(0-inf) (human, plasma, oral, 150 mg, Panel IV (150 mg BID Days 1-2, then 150 mg Q3D/Q4D; SF2a/b, fed), Day 27, read-out: Mean AUC∞ (SD)): 274000 ng·h/mL
Cmax [8]: 1380 ng/mL
Tmax [8]: 5 h
AUC(0-t) (human, plasma, oral, 300 mg, Panel III (150 mg BID Days 1-2, then 300 mg Q7D; SF2a/b, fed), Day 3, read-out: Mean AUC24 h (SD)): 52400 ng·h/mL
AUC(0-t) (human, plasma, oral, 300 mg, Panel III (150 mg BID Days 1-2, then 300 mg Q7D; SF2a/b, fed), Day 3, read-out: Mean AUC72 h (SD)): 122000 ng·h/mL
SMILES: COc1cc(NC(C(=O)c2c[nH]c3ccc(OC(F)(F)F)cc23)c2ccc(Cl)cc2OC)cc(S(C)(=O)=O)c1 (centres unmarked) [Compound (a)]
maintaining exposures over time with weekly or twice weekly dosing (Panels I-IV, fed): feasible to maintain Compound (a) exposures over time
